Test results from patent publication US7906491B2 (Univisitair Medisch Centrum Utrecht, priority 2002, dated 2011).

Key:
Assay type in all cases: cell-based
CREB = CREB phosphorylation (read-out for PKA) in NIH3T3-A14-Epac1 cells; conditions: 15 min, 8-Br-cAMP 1 mM
Method: (§1) Upper panel: NIH3T3-A14-Epac1 cells were treated for 15 min with 8-Br-cAMP, and cell lysates were analyzed for activation of Rap1 and phosphorylation of CREB. Lower panel: NIH3T3-A14-Epac1 cells were treated in duplicate for 15 min with increasing concentrations of 8-pCPT-2′-O-Me-cAMP. Cells were lysed and equal amounts of cell lysate were incubated with precoupled GST-RalGDSRBD and Rap1 was assayed by immunoblotting with Rap1 antibody.
(§2) Therefore, 8-CPT-2′-O-Me-cAMP was tested in NIH3T3-A14-Epac1 cells for the activation of Epac, using Rap1 as a read-out, and of PKA, using phosphorylation of the common PKA substrate CREB 29 as a read-out.
Antibodies against phosphorylated CREB (directed against phosphorylated Serl33) were obtained from Cell Signalling (Beverly, Mass., USA), and antibodies against K-Rev/Rap1 and polyclonal anti-HA were obtained from Santa Cruz Biotechnology (Santa Cruz, Calif., USA). The following inhibitors and stimuli were used at concentrations indicated, unless stated otherwise: RGD peptide (100 μM) and H-89 (10 μM) was obtained from Biomol Research Laboratories Inc. (Plymouth Meeting, Pa., USA). 8-Br-cAMP (1 mM) was obtained from BIOLOG Life Science Institute (Bremen, Germany). TPA (12-O-tetradecanoylphorbol-13-acetate) was obtained from Sigma (Steinheim, Germany) and was used at a concentration of 100 ng/ml. […]

Rap1 [1] = experiment: Rap1 activation assay (read-out for Epac) in NIH3T3-A14-Epac1 cells; conditions: 15 min, 8-Br-cAMP 1 mM
Method: as §1, §2
NIH3T3-A14 cells, stably expressing Epac1, were grown in DMEM with 10% fetal calf serum and 2 μg/ml puromycin. NIH-OVCAR3 (Ovcar3) cells were maintained in RPMI with 10% fetal calf serum. Transient transfection of Ovcar3 cells was performed using the FuGENE 6 transfection reagent (Roche Diagnostics, Mannheim, Germany) according to the manufacturer's procedures, using 6 μg total DNA including a CMV-luciferase plasmid (0.2 μg).
Rap activation assays were performed as described previously (16-18). Briefly, cells were lysed in lysis buffer containing 10% glycerol, 1% Nonidet P-40, 50 mM Tris-Cl pH7.5, 200 mM NaCl, 2mM MgCl2, 1 μM leupeptin, 0.1 μM aprotinin, 5 mM NaF, 1 mM NaVO3. Lysates were clarified by centrifugation and incubated with GST-tagged RalGDS-RBD pre-coupled to glutathione beads to specifically pull down the GTP-bound forms of Rap1. Samples were incubated for 1 hr at 4° C. while tumbling. Beads were washed four times in lysis buffer, and the remaining fluid was removed with an insulin syringe. Proteins were eluted with Laemmli sample buffer and analyzed by sodium dodecyl sulphate (SDS)-polyacrylamide gel electrophoresis and Western blotting using Rap1 antibodies. As a control, Rap1 levels in whole cell lysates were determined.

Ovcar3 cells = experiment: Adhesion assay of Ovcar3 cells to fibronectin; conditions: H-89 10 μM, 8-pCPT-2′-O-Me-cAMP 100 μM, FIG. 7C
Method: A: 8-pCPT-2′-O-Me-cAMP stimulates cell adhesion. Upper panel: quantification of Ovcar3 cells adhering to fibronectin after treatment with increasing concentrations of 8-pCPT-2′-O-Me-cAMP. Lower panel: Ovcar3 cells were treated with increasing concentrations of 8-pCPT-2′-O-Me-cAMP for 15 min, cells were lysed and analyzed for activation of Rap1 (upper blot) and CREB (lower blot). Total Rap1 levels are shown (middle blot). B: 8-pCPT-2′-O-Me-cAMP increases the rate of cell adhesion. Upper panel: quantification of Ovcar3 cells adhering to fibronectin at various time points. Lower panel: cells were treated with 60 μM 8-pCPT-2′-O-Me-cAMP for the indicated times. Cell lysates were analyzed for activation of Rap1 (upper blot) and CREB (lower blot). Total levels of Rap1 in cell lysates are shown (middle blot). C: Ovcar3 cells were either pre-incubated at 37° C. for 30 min with the PKA inhibitor H-89 (10 μM) 30 min prior to seeding onto the wells (‘Short’) or H-89 was added 30 min prior to trypsinization and during the recovery period (‘Long’) and seeded onto wells in the absence or presence of 8-pCPT-2′-O-Me-cAMP (100 μM). Cells were allowed to adhere for 1 h. D, cAMP-induced adhesion to fibronectin is blocked by inhibitors of Rap1. Left panel: Ovcar3 cells were transiently transfected with either mock DNA, increasing concentrations of HA-Rap1GAP II (0.5, 1, 2 or 6 μg, respectively), HA-Rap1GAPI (6 μg) or HA-RBD of RalGDS (6 μg), respectively. Cells were treated with 8-Br-cAMP or 8-pCPT-2′-O-Me-cAMP and adhesion to fibronectin was determined. […]
In functional assays, 8-pCPT-2′-O-Me-cAMP appeared to induce integrin-mediated cell adhesion through Epac and Rap1. […] The cells were seeded onto fibronectin-coated plates in the presence or absence of 8-pCPT-2′-O-Me-cAMP and the amount of cells that adhered after a certain period of time was quantified. […]
24-well plates were coated overnight with 2 μg/ml fibronectin (Sigma, St. Louis, Mo., USA) in sodium bicarbonate buffer (Sigma, St. Louis, Mo., USA). […] Cells were centrifuged, counted and resuspended at 3×10^5 cells/ml in serum-free RPMI with 0.5% BSA. […]

Rap1 [2] = experiment: Rap1 activation assay in Ovcar3 cells; conditions: H-89 10 μM, FIG. 7C
Method: A: 8-pCPT-2′-O-Me-cAMP stimulates cell adhesion. Upper panel: quantification of Ovcar3 cells adhering to fibronectin after treatment with increasing concentrations of 8-pCPT-2′-O-Me-cAMP. Lower panel: Ovcar3 cells were treated with increasing concentrations of 8-pCPT-2′-O-Me-cAMP for 15 min, cells were lysed and analyzed for activation of Rap1 (upper blot) and CREB (lower blot). Total Rap1 levels are shown (middle blot). B: 8-pCPT-2′-O-Me-cAMP increases the rate of cell adhesion. Upper panel: quantification of Ovcar3 cells adhering to fibronectin at various time points. Lower panel: cells were treated with 60 μM 8-pCPT-2′-O-Me-cAMP for the indicated times. Cell lysates were analyzed for activation of Rap1 (upper blot) and CREB (lower blot). Total levels of Rap1 in cell lysates are shown (middle blot). C: Ovcar3 cells were either pre-incubated at 37° C. for 30 min with the PKA inhibitor H-89 (10 μM) 30 min prior to seeding onto the wells (‘Short’) or H-89 was added 30 min prior to trypsinization and during the recovery period (‘Long’) and seeded onto wells in the absence or presence of 8-pCPT-2′-O-Me-cAMP (100 μM). Cells were allowed to adhere for 1 h. D, cAMP-induced adhesion to fibronectin is blocked by inhibitors of Rap1. Left panel: Ovcar3 cells were transiently transfected with either mock DNA, increasing concentrations of HA-Rap1GAP II (0.5, 1, 2 or 6 μg, respectively), HA-Rap1GAPI (6 μg) or HA-RBD of RalGDS (6 μg), respectively. Cells were treated with 8-Br-cAMP or 8-pCPT-2′-O-Me-cAMP and adhesion to fibronectin was determined. Right upper panel: luciferase counts of total input cells per well in the above experiment are shown. Right lower panel: expression of HA-Rap1GAPs in the above experiment is shown.
Rap activation assays were performed as described previously (16-18). […] Proteins were eluted with Laemmli sample buffer and analyzed by sodium dodecyl sulphate (SDS)-polyacrylamide gel electrophoresis and Western blotting using Rap1 antibodies. As a control, Rap1 levels in whole cell lysates were determined.

Row | Compound | phosphorylation of CREB (CREB) | activation of Rap1 (Rap1 [1]) | effect on 8-pCPT-2′-O-Me-cAMP induction of adhesion (Ovcar3 cells) | effect on 8-pCPT-2′-O-Me-cAMP activation of Rap1 (Rap1 [2])
1 | Nc1ncnc2c1nc(Br)n2[C@@H]1O[C@@H]2COP(=O)(O)O[C@H]2[C@H]1O [Compound 8-Br-cAMP, 8-Br-cAMP, reference compound] | induced both the activation of Rap1 and the phosphorylation of CREB | induced both the activation of Rap1 |  | 
2 | O=S(=O)(NCCNC/C=C/c1ccc(Br)cc1)c1cccc2cnccc12 [Compound H-89, H-89, reference compound] |  |  | insensitive | insensitive
